In the METLIN SMRT retention time set (Domingo-Almenara et al. 2019):

Test: gradient 5% acetonitrile 3 min, to 50% in 2 min, to 85% in 15 min, held 3 min, 100 µL/min
Details: column: Zorbax Extend-C18 2.1 x 50 mm; eluents: water / acetonitrile, 0.1% formic acid
Summary of the method: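 Retention times come from adduct peaks that were picked computationally and then checked by hand. The standards, pure and pooled in mixtures of ~100 molecules, were run on a Zorbax Extend-C18 column (2.1 × 50 mm, 1.8 μm) at 100 μL/min with water and acetonitrile, each with 0.1% formic acid. Detection was by quadrupole time-of-flight mass spectrometry in positive and negative ionization mode, with a dead volume of 40 μL and a dwell volume of 900 μL.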

Row | RP-LC retention time [s] | SMILES
1 | 941 | COc1ccccc1N1CCN(c2cc(SCC(=O)Nc3ccc(F)cc3)ncn2)CC1
2 | 1070 | CCCNC(=O)Cc1c(C)nn(-c2nc(-c3ccc(C)cc3)cs2)c1C
3 | 1070 | Clc1cccc(-c2nnc(Cc3nc(-c4ccccc4)no3)o2)c1
4 | 856 | CN(C)S(=O)(=O)c1ccc2c(c1)N(CC(=O)NC1CCCC1)C(=O)C1CCCCN21 (stereo not drawn)
5 | 804 | Cc1ccccc1-c1noc(CN2N=NC3C(=O)N(c4ccc(F)c(F)c4)C(=O)C32)n1 (stereo not drawn)
6 | 664 | CCOC(=O)C1CCN(C(=O)c2nc3ccccn3c2-c2ccsc2)CC1
7 | 639 | CCn1c(CCNC(=O)Cc2ccc(Cl)cc2)nc2cccnc21
8 | 1070 | COc1cccc(C2Cn3nnc(-c4nc(-c5ccsc5)no4)c3CO2)c1 (stereo not drawn)
9 | 653 | CCOc1ccccc1CNC(=O)c1cc(NC(C)=O)cc2nc(C)ccc12
10 | 831 | O=C(NCc1ccc2c(c1)OCO2)c1nn(-c2ccccc2)c2ccccc2c1=O
11 | 684 | CCn1ncc(N2CCCC(CC(=O)N3CCSCC3)C2)cc1=O (stereo not drawn)
12 | 962 | COc1ccc(S(=O)(=O)N2CCCC(C(=O)NC3CCCCC3)C2)cc1C (stereo not drawn)
13 | 669 | O=C(Cn1nc2n(c1=O)CCCC2)NCc1ccccc1Cl
14 | 820 | Cc1ccc(-n2nc(N3CCN(C(=O)Nc4cccc(C)c4)CC3)ccc2=O)cc1
15 | 729 | Cc1ccccc1CNC1=NCCNC12CCN(S(=O)(=O)c1ccccc1C)CC2
16 | 1060 | Cc1ccc(S(=O)(=O)N2C(=O)CCC2C(=O)NC2CCCCCCC2)cc1C (stereo not drawn)
17 | 614 | COCCNC(=O)C(=O)NCCC(O)C(C)(C)C (stereo not drawn)
18 | 1050 | COc1ccc(CNC(=O)Nc2ccc(-c3nc(-c4ccccc4)co3)cc2)cc1
19 | 1250 | CCC1(C(=O)OC)CCc2c(cc(OC)c3ccccc23)C1=O (stereo not drawn)
20 | 761 | Cc1cccc(Sc2nccnc2N2CCCC(C(=O)N3CCN(c4ccccn4)CC3)C2)c1 (stereo not drawn)
21 | 769 | O=C(N[C@@H](Cc1c[nH]c2ccccc12)C(=O)O)c1cc2ccccc2o1
22 | 963 | Cc1ccc(N2C(=O)CN(S(=O)(=O)c3ccccc3)CC2(C)C(=O)NC2CCCC2)cc1C (stereo not drawn)

Row | RP-LC retention time [s] | SMILES
23 | 702 | O=C(c1ccc(S(=O)(=O)c2ccc(Cl)cc2)s1)N1CCN(c2ccccn2)CC1
24 | 852 | Cc1nn(CC(=O)NC2CCCC2)c(=O)c2cc(-c3ccccc3)nn12
25 | 833 | CCOc1ccc(CN2C(=O)C3(CCOCC3)CC2c2nnnn2C(C)(C)C)cc1 (stereo not drawn)
26 | 803 | CCOc1ccc(CC(=O)NC2CCN(c3cc(-c4ccc(Cl)cc4)[nH]n3)C2)cc1OCC (stereo not drawn)
27 | 715 | CCn1c(=O)n(CC)c2cc(S(=O)(=O)c3ccccc3)c(NC(C)=O)cc21
28 | 1220 | Cc1cccc(N2CCN(c3ccc4nnc(CCc5nc(-c6ccccc6C)no5)n4n3)CC2)c1
29 | 1220 | O=C(NC1CCCCC1)C1CCCN(S(=O)(=O)c2cc(-c3noc(C4CCCC4)n3)cs2)C1 (stereo not drawn)
30 | 1080 | CCOc1cccc(-c2noc(Cc3nnc(-c4ccc(F)cc4)o3)n2)c1
31 | 778 | O=C(Cn1cnc2nc3c(cc2c1=O)CCCC3)Nc1ccc(Cl)cc1F
32 | 752 | COc1ccc(S(=O)(=O)N2CCC3(CC2)CC(C)(O)CCO3)cc1 (stereo not drawn)
33 | 1010 | CC(C(=O)N1CCCCC1)n1ccc2cc(S(=O)(=O)N3CCCCCC3)ccc21 (stereo not drawn)
34 | 973 | CCOc1ccccc1N1CCN(S(=O)(=O)c2nn(C)cc2C(=O)NCC2CC2)CC1
35 | 822 | Cc1ccc(NC(=O)N2CCC(N3CCN(Cc4ccccc4)C3=O)CC2)cc1
36 | 576 | CCCN1C(=O)C(CC(=O)N2CCN(C)CC2)Sc2ncccc21 (stereo not drawn)
37 | 856 | CNS(=O)(=O)c1cccc(-c2nnc(-c3ccc(C)cc3)o2)c1
38 | 969 | COc1ccc2cc(OCC3(C(=O)O)CN(C(=O)c4ccc(F)cc4)C3)ccc2c1
39 | 758 | COc1cccc(CCNC(=O)C2CCCN(c3ncnc4c3nc3n4CCCCC3)C2)c1OC (stereo not drawn)
40 | 1210 | O=S(=O)(Cc1cccc(Cl)c1)N1CCc2nc(-c3ccc(Cl)cc3)ncc2C1
41 | 654 | COc1cccc(-c2nnc(-c3ccc(-n4ccnc4)nc3)o2)c1
42 | 782 | COc1ccc(CCS(=O)(=O)Nc2ccc(CC(=O)NCc3cccs3)cc2)cc1
43 | 1000 | CCCn1c(=O)sc2cc(S(=O)(=O)N3CCC(C(=O)Nc4ccccc4OC)CC3)ccc21
44 | 1310 | CCCN(C(=O)c1ccccc1OC)c1nc(-c2ccccc2)cs1

Row | RP-LC retention time [s] | SMILES
45 | 855 | Cc1ccc(-c2ccc(N3CCCC(C(=O)NCCC4=CCCCC4)C3)nn2)cc1 (stereo not drawn)
46 | 752 | CN(C)c1nccnc1OC1CCN(C(=O)c2ccccc2Br)C1 (stereo not drawn)
47 | 619 | Cc1cc(NC(=O)CCn2cnc3ccccc3c2=O)sn1
48 | 759 | O=C(CCOc1ccccc1)NCc1ccccc1
49 | 1360 | O=C(Nc1ccc(Br)cc1F)C1CCCN(c2nc3ccccc3nc2C(F)(F)F)C1 (stereo not drawn)
50 | 802 | Cc1cc2nn(CC(=O)Nc3ccc(Cl)cc3)c(=O)n2c(N2CCCC2)n1
51 | 861 | CCOc1ccccc1NC(=O)CSc1nccc(N2CCN(c3cc(C)ccc3C)CC2)n1
52 | 957 | Cc1ccc(NS(=O)(=O)c2ccc3c(c2)C(=O)N(C)c2ncccc2O3)cc1F
53 | 613 | COCCn1ncc(N2CCCC(CC(=O)O)C2)cc1=O (stereo not drawn)
54 | 961 | O=C(Cc1ccccc1F)N1CCc2cc(-c3ccno3)ccc21
55 | 890 | O=C(c1cnn2c(-c3ccc4c(c3)OCO4)ccnc12)N1CCN(c2ccc(F)cc2)CC1
56 | 788 | O=C(NCc1ccccc1F)c1ccc2c(c1)nc1n2CCN(C2CCCCC2)C1=O
57 | 729 | O=C(Nc1ccc(F)c(Cl)c1)c1nc2ncccn2n1
58 | 1020 | COc1cc(OC)cc(-c2nc(NC(=O)C3CCCN(c4cnc5ccccc5n4)C3)n[nH]2)c1 (stereo not drawn)
59 | 917 | Cc1ccc(NC(=O)C2CCCN(c3ccc4cc(S(=O)(=O)N5CCCCC5)ccc4n3)C2)cc1 (stereo not drawn)
60 | 767 | Cc1ccc(CNC(=O)c2ccc3c(c2)nc2n3CCN(C(C)C)C2=O)cc1C
61 | 879 | CCOC(=O)c1cc(C)nc2c1c(=O)n(Cc1ccccc1)c(=O)n2C
62 | 890 | CC(=O)NCc1ccc(-c2noc(Cc3ccc(Br)cc3)n2)s1
63 | 1040 | Cc1ccc(NS(=O)(=O)c2ccc(-c3c(C)noc3C)cc2)cc1Cl
64 | 1200 | CCN1C(=O)C2(CCN(S(=O)(=O)c3ccc(Cl)cc3C)CC2)c2ccccc21
65 | 940 | CC(C)c1noc(-c2cc(=O)n(CC(=O)NCc3ccccc3)c3ccccc23)n1
66 | 785 | COCc1cc2nn(CC(=O)NC3CCCCC3)c(=O)n2c(-c2ccccc2)n1

Row | RP-LC retention time [s] | SMILES
67 | 877 | CC(C)n1cc(S(=O)(=O)Nc2cccc(F)c2)c2cccnc21
68 | 844 | Cc1[nH]c2ccccc2c1C(=O)C(=O)NCCn1ccc2ccccc21
69 | 706 | CN(CCNC(=O)C1c2ccccc2C(=O)N(C)C1c1cccs1)C1CCCCC1 (stereo not drawn)
70 | 564 | O=C(c1ccc2c(c1)OCO2)N1CCC(Nc2ncnc3c2CCC3)C1 (stereo not drawn)
71 | 716 | O=C1CCCc2cc(S(=O)(=O)N3CCC(C(=O)N4CCCCCC4)CC3)ccc2N1
72 | 1140 | CCOc1cccc(-c2noc(CN3C(=O)C(C)Oc4ccccc43)n2)c1 (stereo not drawn)
73 | 771 | CCN1c2cc(F)ccc2C(=O)NC12CCN(C(=O)c1ccc3c(c1)OCO3)CC2
74 | 876 | O=C(c1ccc(F)c(F)c1)N1CCN(C(=O)c2nnn3c2COC(c2ccccc2)C3)CC1 (stereo not drawn)
75 | 769 | Cc1cc(N2CCN(S(=O)(=O)c3cc(F)ccc3F)CC2)nc(N2CCCCC2)n1
76 | 513 | Nc1ncnc2c1nnn2C1OC(CO)C(O)C1O (stereo not drawn)
77 | 841 | O=C(CCSc1ccccc1)NCC(O)c1cccc2ccccc12 (stereo not drawn)
78 | 831 | COc1ccccc1C(=O)N1CCCC1c1cc(C(C)C)on1 (stereo not drawn)
79 | 599 | CN(CCNC(=O)c1ccc(CN2C(=O)CCn3nccc32)cc1)C1CCCCC1
80 | 824 | CC(C)c1noc(C2CCCCN2Cc2nc(-c3ccccn3)no2)n1 (stereo not drawn)
81 | 1020 | Cc1ccc(-n2nc(N3CCCC(C(=O)Nc4ccc(F)cc4F)C3)ccc2=O)cc1Cl (stereo not drawn)
82 | 990 | COc1cccc(CNC(=O)C2(C)CCCN(C(=O)Nc3cc(Cl)ccc3OC)C2)c1 (stereo not drawn)
83 | 782 | O=C(CCc1nc2ccccc2n(CC(=O)Nc2ccc3c(c2)OCCO3)c1=O)NCc1ccccc1
84 | 605 | CCOC(=O)N1CCC(NC(=O)c2coc(NC(=O)c3ccco3)n2)CC1
85 | 898 | COc1ccc(-c2nc(C3CC(=O)N(c4ccc(F)cc4)C3)no2)c(OC)c1 (stereo not drawn)
86 | 730 | CCc1ccccc1NC(=O)N(C)CC1CCOCC1

Row | SMILES | RP-LC retention time [s]
87 | COc1cc(CCC(=O)N2CCC3(CC2)NCc2ccccc2-n2ccnc23)on1 | 584
88 | CCc1nc(N2CCNCC2)c(C#N)c2c1COC(C)(C)C2 | 627
